# Structures can show the parent of a compound that is named as a salt. Where two headings read alike, the source gives them in different places.
# How the values were obtained:
# TA1537 = experiment: Ames assay, dark mutagenicity, strain TA1537; details: TA1537 −S9; 10 μg/plt
# Description: (§1) In this example the compounds of the present invention are tested for their dark mutagenicity using an Ames assay. The procedures used for the Salmonella mutagenicity test as described in detail by Maron and Ames were followed exactly. Maron, D. M. and B. N. Ames, Mutation Research 113:173 (1983). A brief description for each procedure is given here. The tester strains TA97a, TA98, TA100, TA102, TA1537 and TA1538 were obtained from Dr. Ames. TA97a, TA98, TA1537 and TA1538 are frameshift tester strains. TA100 and TA102 are base-substitution tester strains. Upon receipt each strain was cultured under a variety of conditions to confirm the genotypes specific to the strains.
# (§2) The first tests done with the strains were to determine the range of spontaneous reversion for each of the strains. With each mutagenicity experiment the spontaneous reversion of the tester strains to histidine independence was measured and expressed as the number of spontaneous revertants per plate. This served as the background controls.
# (§3) For all experiments, the pre-incubation procedure was used. In this procedure one vial of each tester strain was thawed and 20 μL of this culture was added to 6 mL of Oxoid Nutrient Broth #2. This solution was allowed to shake for 10 hours at 37° C. In the pre-incubation procedure, 0.1 mL of this overnight culture was added to each of the required number of sterile test tubes. To half of the tubes 0.5 mL of a 10% S-9 solution containing Aroclor 1254 induced rat liver extract (Molecular Toxicology Inc., Annapolis, MD), and MgCl2, KCl, glucose-6-phosphate, NADP, and sodium phosphate buffer (Sigma, St. Louis. Mo.) were added. To the other half of the tubes 0.5 mL of 0.2M sodium phospate buffer, pH 7.4, was used in place of the S-9 mixture (the -S9 samples) Finally 0.1 mL of the test solution containing either 0.0.1, 0.5, 1, 5, 10, 50, 100, 250, or 500 μg/mL of the test compound was added. The 0.7 mL mixture pre-incubated while shaking for 20 minutes at 37° C. After shaking, 2 mL of molten top agar supplemented with histidine and biotin were added to the 0.7 mL mixture and immediately poured onto a minimal glucose agar plate (volume of base agar was 20 ml.). The top agar was allowed 30 minutes to solidify and then the plates were inverted and incubated for 44 hours at 37° C. After incubation the number of revertant colonies on each plate were counted. […] (“n” represents the number of replicates performed for each data point.)
# (§4) Maron and Ames (1983) describe the conflicting views with regard to the statistical treatment of data generated from the test.
# R17 [1] = experiment: R17 bacteriophage inactivation screen, varying compound concentration; assay type: cell-based; details: for R17 log kill 16 uM / R17 log kill 32 uM / R17 log kill 64 uM: starting titer approx. 7.1 logs
# Description: The assay used to predict pathogen inactivation efficiency and to determine nucleic acid binding of the photoreactive binding compounds of the present invention was that in which a bacteriophage, R17, in solution with the desired substrate was irradiated. The ability of the phage to subsequently infect bacteria and inhibit their growth was measured. The bacteriophage was selected for its relatively accessible nucleic acid such that the culture growth inhibition would accurately reflect nucleic acid damage by the test compounds. The bacteriophage assay for nucleic acid binding to test compounds offers a safe and inexpensive procedure to identify compounds likely to display efficient pathogen inactivation. […] An aliquot (0.5 mL) was transferred to a 1.5 mL, snap-top polyethylene tube. An aliquot (0.004-0.040 mL) of the test compound stock solution prepared in water, ethanol or dimethylsulfoxide at 0.80-8.0 mM was added to the tube. Compounds were tested at concentrations between 4 μM and 320 μM. (AMT is commercially available from HRI, Inc., Concord, Calif.; 8-MOP is commercially available from Sigma, St. Louis, Mo.). The tubes were placed in a light device as described in EXAMPLE 1 and irradiated for between 1 and 10 minutes. […] To make the dilutions, a 0.100 mL aliquot of the irradiated solution of phage and test compound was added to the first dilution tube of 0.4 mL of media then 0.020 mL of this solution was added to the second tube of 0.5 mL medium (1:25). The second solution was then diluted serially (1:25) into the remaining tubes. […] After the top agar hardened, the plates were incubated at 37° C. overnight. The plaque forming units were then counted the following morning and the titer of the phage remaining after phototreatment was calculated based on the dilution factors. The following controls were run: the “phage only” in which phage was not treated with test compound and not irradiated (listed as “starting titer” in the tables below); the “UV only” in which the phage was irradiated in the absence of test compound; and the “dark” control in which the phage/test compound solution was not irradiated before it was diluted and plated.
# cell-free virus (HIV) = assay type: cell-based; details: for HIV Log Kill 64 μM / HIV Log Kill 16 μM / HIV Log Kill 32 μM: 1 minute irradiation
# Description: Pathogen inactivation efficiency of several compounds of the present invention was evaluated by examining the ability of the compounds to inactivate cell-free virus (HIV). Inactivation of cell-free HIV was performed as follows.
# As in the R17 assay, small aliquots of the compounds listed in TABLES 8 and 9, below, at the concentrations listed in the table, were added to stock HIV-1 to a total of 0.5 mL. The stock HIV (10^5-10^7 plaque forming units/mL) was in DMEM/15% FBS. […] Controls included HIV-1 stock only, HIV-1 plus UVA only, and HIV-1 plus the highest concentration of each psoralen tested, with no UVA. Post irradiation, all samples were stores frozen at −70° C. until assayed for infectivity by a microtiter plaque assay. Aliquots for measurement of residual HIV infectivity in the samples treated with a compound of the present invention were withdrawn and cultured.
# Residual HIV infectivity was assayed using an MT-2 infectivity assay. […] The assay medium was 85% DMEM (with a high glucose concentration) containing 100 μg of streptomycin, 100 U of penicillin, 50 μg of gentamicin, and 1 μg of amphotericin B per mL, 15% FBS and 2 μg of Polybrene (Sigma Chemical Co., St. Louis, Mo.) per mL. Test and control samples from the inactivation procedure were diluted in 50% assay medium and 50% normal human pooled plasma. The samples were serially diluted directly in 96-well plates (Corning Glass Works, corning, N.Y.). The plates were mixed on an oscillatory shaker for 30 seconds and incubated at 37° C. in a 5% CO2 atmosphere for 1 to 18 hours. […] After an additional 1 hour of incubation at 37° C. in 5% CO2, 0.075 mL of assay medium containing 1.6% SeaPlaque agarose (FMC Bioproducts, Rockland, me.) and prewarmed to 38.5° C. was added to each well. The plates were kept at 37° C. for a few minutes until several plates had accumulated and then centrifuged in plate carriers at 600×g for 20 minutes in a centrifuge precooled to 10° C. In the centrifuge, cell monolayers formed prior to gelling of the agarose layer. The plates were incubated for 5 days at 37° C. in 5% CO2 and stained by the addition of 0.05 mL of 50 μg/mL propidium iodide (Sigma Chemical Co.) in phosphate-buffered saline (pH 7.4) to each well. After 24 to 48 hours, the red fluorescence-stained microplaques were visualized by placing the plates on an 8,000 μW/cm^2 304 nm UV light box (Fotodyne, Inc., New Berlin, Wis.). The plaques were counted at a magnification of ×20 to ×25 through a stereomicroscope. “n” represents the number of runs for which the data point is an average.
# TA100 = system: TA100
# Description: as §1, §2, §3, §4
# TA1538 = experiment: Ames assay, dark mutagenicity, strain TA1538; details: TA1538; in the presence of S9
# Description: as §1, §2, §3, §4
# R17 [2] = experiment: R17 inactivation at constant concentration, varying doses of UV light; assay type: cell-based, bacteriophage R17; details: UV doses 1.0 to 3.0 J/cm^2, FIGS. 11-17
# Description: Compounds of the present invention were also tested at a constant concentration for varying doses of UV light. Three sets of 1.5 mL tubes were prepared containing 0.6 mL aliquots of R17 in DMEM (prepared as described above). The compound tested was added at the desired concentration and the samples were vortexed. The samples were then irradiated at intervals of 1.0 J/cm^2, until 3.0 J/cm^2 was reached. Between each 1.0 J/cm^2 interval, 100 μL was removed from each sample and placed in the first corresponding dilution tube, then five sequential dilutions were performed for each compound tested, at all 3 irradiation doses, as described above in this example.
# Then 50 μL of Hfr 3000 bacteria was added to each tube, 3 mL of top agar was added and the tube contents were vortexed. The contents of each tube was poured into its own LB plate and the plates were incubated overnight at 37° C. Plaques were counted by visual inspection the following morning.
# [3] = Table 8, HIV starting titer approximately 5 logs
# [4] = Table 9, HIV starting titer approximately 5.4 logs
smiles,measurement,setting,value
"Nc1c2ccccc2nc2ccccc12 [9-Aminoacridine, reference compound]","revertant colonies per plate, positive control",TA1537,284
"Cc1oc2c(C)c3oc(=O)cc(C)c3cc2c1CNCCN [Compound 1, 4′-(4-amino-2-aza)butyl-4,5′,8-trimethylpsoralen dihydrochloride]","logs killed in the ""dark"" control","R17 [1]; Table 3, runs 1-3, at most",≤ 0.1 logs
same,R17 inactivation efficiency compared with 8-MOP,R17 [1]; Table 4,much R17 inactivatiotn efficiency than does 8-MOP
same,R17 Log Kill 8 uM,"R17 [1]; Table 5, 8 uM, 1 minute irradiation, starting titer approx. 7.2 logs",1.7 log
same,R17 Log Kill 16 uM,"R17 [1]; Table 5, 16 uM, 1 minute irradiation, starting titer approx. 7.2 logs",2.8 log
same,R17 Log Kill 32 uM,"R17 [1]; Table 5, 32 uM, 1 minute irradiation, starting titer approx. 7.2 logs",5.3 log
same,LOG TITER,"R17 [1]; experiment 1, 32 μM cmpd, 1′ uva, phage only 7.7",<1 log
same,LOG TITER,"R17 [1]; experiment 1, 32 μM cmpd, 10′ uva, phage only 7.7",<1 log
same,LOG TITER,"R17 [1]; experiment 1, compound only (32 μM), not irradiated, phage only 7.7",7.6 log
same,LOG TITER,"R17 [1]; experiment 2, 3.2 μM cmpd, 1′ uva, phage only 7.8",6.9 log
same,LOG TITER,"R17 [1]; experiment 2, 3.2 μM cmpd, 10′ uva, phage only 7.8",6.1 log
same,LOG TITER,"R17 [1]; experiment 2, compound only (3.2 μM), not irradiated, phage only 7.8",7.7 log
same,LOG TITER,"R17 [1]; experiment 3, 4 μM cmpd, 1′ uva, phage only 7.3",6.3 log
same,LOG TITER,"R17 [1]; experiment 3, 8 μM cmpd, 1′ uva, phage only 7.3",5.6 log
same,LOG TITER,"R17 [1]; experiment 3, 16 μM cmpd, 1′ uva, phage only 7.3",3.9 log
same,LOG TITER,"R17 [1]; experiment 3, compound only (16 μM), not irradiated, phage only 7.3",7.3 log
same,HIV Log Kill 64 μM,cell-free virus (HIV); [3],2.1 log
same,mutation in the TA100 strain,"TA100; TA100, with and without S9",only in the absence of S9
same,dose at which the only mutagenic response (weak frameshift mutagen) was detected,TA1538,5 μg/plate
"Cc1oc2c(C)c3oc(=O)cc(C)c3cc2c1COCCN [Compound 2, 4′-(4-Amino-2-oxa)butyl-4,5′,8-trimiethylpsoralen Hydrochloride]",HIV Log Kill 16 μM,cell-free virus (HIV); [3],1.4 log
same,HIV Log Kill 32 μM,cell-free virus (HIV); [3],3.8 log
same,HIV Log Kill 64 μM,cell-free virus (HIV); [3],>4.5 log
same,HIV inactivation activity compared with AMT,cell-free virus (HIV); concentrations of 64 μM of compound or higher,significantly more active than AMT
"Cc1oc2c(C)c3oc(=O)cc(C)c3cc2c1CNCCCN [Compound 5, 4′-(5-amino-2-aza)pentyl-4,5′,8-trimethylpsoralen dihydrochloride]",R17 log kill 16 uM,"R17 [1]; Table 6, 16 uM, 1 minute irradiation = 1.2 J/cm^2",5.6 log
same,R17 log kill 32 uM,"R17 [1]; Table 6, 32 uM, 1 minute irradiation = 1.2 J/cm^2",>6.1 log
same,R17 log kill 64 uM,"R17 [1]; Table 6, 1 minute irradiation = 1.2 J/cm^2",>6.1 log
same,HIV Log Kill 16 μM,cell-free virus (HIV); [3],0.9 log
same,HIV Log Kill 32 μM,cell-free virus (HIV); [3],1.3 log
same,HIV Log Kill 64 μM,cell-free virus (HIV); [3],>2.6 log
"Cc1oc2c(C)c3oc(=O)cc(C)c3cc2c1COCCOCCN [Compound 7, 4′-(7-Amino-2,5-oxa)heptyl-4,5′,8-trimethylpsoralen Hydrochloride]",R17 log kill 16 uM,"R17 [1]; Table 7, 16 uM, 1 minute irradiation",>6 log
same,R17 log kill 32 uM,"R17 [1]; Table 7, 32 uM, 1 minute irradiation",>6 log
same,R17 log kill 64 uM,"R17 [1]; Table 7, 1 minute irradiation",>6 log
same,HIV Log Kill 16 μM,cell-free virus (HIV); [3],0.8 log
same,HIV Log Kill 32 μM,cell-free virus (HIV); [3],2.1 log
same,HIV Log Kill 64 μM,cell-free virus (HIV); [3],3.5 log
"Cc1oc2c(C)c3oc(=O)cc(C)c3cc2c1COCCOCCNCCCCN.Cl.Cl [Compound 8, 4′-(12-Amino-8-aza-2,5-dioxa)dodecyl-4,5′,8-trimethylpsoralen Dihydrochloride]",HIV Log Kill 16 μM,cell-free virus (HIV); [3],1.1 log
same,HIV Log Kill 32 μM,cell-free virus (HIV); [3],1.9 log
same,HIV Log Kill 64 μM,cell-free virus (HIV); [3],3.7 log
Cc1oc2c(C)c3oc(=O)cc(C)c3cc2c1CNCCCOCCCCOCCN [Compound 9],HIV Log Kill 16 μM,cell-free virus (HIV); [4],0.8 log
same,HIV Log Kill 32 μM,cell-free virus (HIV); [4],1.4 log
same,HIV Log Kill 64 μM,cell-free virus (HIV); [4],2.7 log
"Cc1oc2c(C)c3oc(=O)cc(C)c3cc2c1CNCCCCCN.Cl.Cl [Compound 10, 4′-(7-amino-2-aza)heptyl-4,5′,8-trimethylpsoralen dihydrochloride]",R17 inactivation compared with AMT,R17 [2],more efficient at inactivating R17 than was AMT
same,HIV Log Kill 16 μM,cell-free virus (HIV); [4],2.0 log
same,HIV Log Kill 32 μM,cell-free virus (HIV); [4],>3.5 log
same,HIV Log Kill 64 μM,cell-free virus (HIV); [4],>3.5 log
Cc1oc2c(C)c3oc(=O)cc(C)c3cc2c1CNCCCNCCCN [Compound 12],R17 inactivation compared with AMT,R17 [2],more efficient at inactivating R17 than was AMT
same,HIV Log Kill 16 μM,cell-free virus (HIV); [4],0.4 log
same,HIV Log Kill 32 μM,cell-free virus (HIV); [4],0.8 log
same,HIV Log Kill 64 μM,cell-free virus (HIV); [4],1.3 log
"Cc1oc2c(C)c3oc(=O)cc(C)c3cc2c1CNCCCNCCCCNCCCN.Cl.Cl.Cl.Cl [Compound 15, 4′-(14-Amino-2,6,11-triaza)tetradecyl-4,5′,8-trimethylpsoralen Tetrahydrochloride]",R17 inactivation compared with AMT,R17 [2],more efficient at inactivating R17 than was AMT
Cc1cc(=O)oc2c(C)c3oc(COCCN)c(C)c3cc12 [Compound 18],HIV Log Kill 16 μM,cell-free virus (HIV); [4],1.0 log
same,HIV Log Kill 32 μM,cell-free virus (HIV); [4],1.0 log
same,HIV Log Kill 64 μM,cell-free virus (HIV); [4],3.1 log
"[N-]=[N+]=[N-] [sodium azide, reference compound]","revertant colonies per plate, positive control","TA100; TA100 −S9, 1.5 μg/plate",965

# From US6420570B1, “Psoralen compounds” (priority 1993, dated 2002)
